Experimental data: patent US20200383985A1, “Inhibitors of Protease Activated Receptor-2” (Endosome Therapeutics, Inc., priority 2017, published 2020)

Key:
mouse DRG neurons = assay: Patch clamp rheobase of DRG neurons: protease-induced hyperexcitability of nociceptors; format: cell-based; details: for basal excitability of DRG neurons / initial hyperexcitability (0 min) caused by trypsin, NE or CS / persistent effects (30 min) of NE or CS on rheobase / persistent effects (30 min) of trypsin on rheobase: Dy4 30 μM, PS2 15 μM; for rheobase after protease: trypsin 50 nM 10 min, NE 390 nM 30 min, CS 500 nM 60 min, thrombin 50 nM 20 min, washed
colonic afferent neurons = assay: Colonic afferent recordings, healthy mice; set-up: species or system mouse; details: for amplification of frequency of firing to mechanical stimulation: healthy mice, 2 g filament, trypsin 10 nM, NE 100 nM, CS 100 nM, 10 min; for basal mechanical sensitivity of colonic afferents / trypsin-induced sensitization of mechanical responses: I-343 10 μM, PS2 or PS2 inact 50 μM
Source text: To examine whether proteases cleave PAR2 on the peripheral terminals of colonic nociceptors to induce mechanical hypersensitivity, single unit recordings from afferent neurons innervating the mouse colon were made. Receptive fields were identified by mechanical stimulation of the mucosal surface with von Frey filaments, proteases were applied to the mucosal receptive fields, and mechanical responses were re-evaluated to assess sensitization. Under basal conditions, repeated mechanical stimulation (2 g filament) induced reproducible firing (FIG. 9A). […] The results support the hypothesis that PAR2 endocytosis is required trypsin-induced sensitization of colonic afferent neurons. The colon and rectum (5-6 cm) was removed from C57BL/6 mice. Afferent recordings were made from splanchnic nerves as described (Hughes, P. A. et al., Gut 2009, 58(10): 1333-134; Brierley, S. M. et al., Gastroenterology 2004, 127(1): 166-178). Briefly, the intestine was opened and pinned flat, mucosal side up, in an organ bath. […] The splanchnic nerve was extended into a paraffin-filled recording compartment, in which finely dissected strands were laid onto a platinum electrode for single-unit extracellular recordings of action potentials generated by mechanical stimulation of receptive fields in the colon. Receptive fields were identified by mechanical stimulation of the mucosal surface with a brush of sufficient stiffness to activate all types of mechanosensitive afferents. […] These neurons express an array of channels and receptors involved in pain, become mechanically hypersensitive in models of chronic visceral pain, and have a nociceptor phenotype. They are therefore referred to as “colonic nociceptors”. […] Proteases were applied to a metal cylinder placed over the receptive mucosal field of interest. […] Action potentials were analyzed using the Spike 2 […] function and discriminated as single units on the basis of distinguishable waveform, amplitude and duration.

[1] = test system: cytosolic and nuclear ERK; assay: FRET assays of cytosolic and nuclear ERK in HEK293 cells; format: cell-based; details: for trypsin activation of cytosolic and nuclear ERK: I-343 10 μM, SCH530348 100 nM, PS2 30 μM
Description: Trypsin-induced ERK signaling mediated by endosomal PAR2 signaling was investigated in HEK293 cells expressing Flag-PAR2-HA11 and FRET biosensors for cytosolic and nuclear ERK (CytoEKAR, NucEKAR), plasma membrane and cytosolic PKC (pmCKAR, CytoCKAR), and plasma membrane and cytosolic cAMP (pmEpac, CytoEpac). […] I-343 (10 μM) but not SCH530348 (100 nM) inhibited trypsin activation of cytosolic and nuclear ERK (FIG. 5G). PS2 and DynK44E inhibited trypsin-stimulated activation of cytosolic and nuclear ERK when compared to PS2 inact and DynWT controls (FIG. 5H, 5I, 17G-J). AG1478 (1 μM), an inhibitor of EGF receptor tyrosine kinase (Levitzki, A. & Gazit, A. Science 1995, 267(5205): 1782-1788), UBO-QIC (100 nM), which inhibits Gαq and certain Gβγ signals ([…]), and G66983 (1 μM), which inhibits all isoforms of PKC (Gschwendt, M, et al., FEBS Lett 1996, 392(2): 77-80), suppressed trypsin-stimulated activation of cytosolic ERK (FIGS. 5J and 17K).
HEK293 cells were cultured in DMEM supplemented with 10% (v/v) FBS (5% CO2, 37° C.). When necessary serum restriction was achieved by replacing culture medium with DMEM containing 0.5% FBS overnight. Cells were transiently transfected using polyethylenimine (PEI) (1:6 DNA:PEI).
HEK293 cells were transiently transfected in 10 cm dishes (˜50% confluency) with Flag-PAR2-HA (2.5 μg) and FRET biosensors CytoEKAR or NucEKAR (2.5 μg) (Jensen, D. D. et al., Sci Transl Med. 2017, 9(392), eaal3447; Thomsen, A. R. B., et al., Cell 2016, 166(4): 907-919). In experiments examining the role of dynamin, cells were transfected with FLAG-PAR2-HA (1.25 μg), FRET biosensor (1.25 μg) and either DynWT-HA, DynK44E-HA or pcDNA3.1 (2.5 μg). At 24 h after transfection, cells were seeded on ViewPlate-96 well plates (PerkinElmer). FRET was assessed 72 h post-transfection, following overnight serum restriction. Cells were equilibrated in HBSS-HEPES (30 min, 37° C.). FRET was measured using a PHERAstar FSX Microplate Reader (BMG LabTech). For CFP/YFP emission ratio analysis, cells were sequentially excited using a CFP filter (425/10 nm) with emission measured using YFP (550/50 nm) and CFP (490/20 nm) filters. FRET was measured before and after stimulation with trypsin (10 nM), NE (100 nM), CS (100 nM), phorbol 12,13-dibutyrate, PDBu (positive control, 1 μM), or vehicle. FRET ratios (donor/acceptor intensity for EKAR, or acceptor/donor intensity for CKAR and Epac) were calculated and corrected to baseline and vehicle treatments to determine ligand-induced FRET (ΔFRET). Treatment effects were determined by comparison of area under the curve values. Signalling inhibitors were dissolved in HBSS-HEPES. PS2 and PS2 inact were dissolved in HBSS-HEPES+1% DMSO. Cells were incubated with UBO-QIC (100 nM), AG1478 (1 μM), G66983 (1 μM), PS2 or PS2 inact (30 μM) or vehicle (30 min preincubation, inclusion throughout).

Molecule: O=C(N/N=C/c1cc(O)c(O)cc1O)c1cc2ccccc2cc1O [Dy4]
- basal excitability of DRG neurons (mouse DRG neurons): did not affect
- initial hyperexcitability (0 min) caused by trypsin, NE or CS (mouse DRG neurons): did not affect
- persistent effects (30 min) of NE or CS on rheobase (mouse DRG neurons): not
- persistent effects (30 min) of trypsin on rheobase (mouse DRG neurons): abolished

Molecule: trypsin
- amplification of frequency of firing to mechanical stimulation (colonic afferent neurons): 35.8±5.9%
- rheobase after protease (mouse DRG neurons): decreased rheobase at 0 and 30 min
- EC50 ([1]; HEK293 cells, read-out: EC50, activation of ERK in the cytosol and nucleus): 5 nM
- activation of ERK in the cytosol and nucleus ([1]; trypsin 10 nM, NE or CS 100 nM): stimulated a rapid and persistent activation

Molecule: O=C1NC(=NS(=O)(=O)c2cccc3ccccc23)S/C1=C\c1ccc(Br)cc1 [PS2]
- basal mechanical sensitivity of colonic afferents (colonic afferent neurons): did not affect
- trypsin-induced sensitization of mechanical responses (colonic afferent neurons): abolished
- basal excitability of DRG neurons (mouse DRG neurons): did not affect
- initial hyperexcitability (0 min) caused by trypsin, NE or CS (mouse DRG neurons): did not affect
- persistent effects (30 min) of NE or CS on rheobase (mouse DRG neurons): not
- persistent effects (30 min) of trypsin on rheobase (mouse DRG neurons): abolished
- trypsin activation of cytosolic and nuclear ERK [1]: inhibited

Molecule: NE: protease (elastase) activating PAR2 by biased mechanisms
- amplification of frequency of firing to mechanical stimulation (colonic afferent neurons): 41.0±11.8%
- rheobase after protease (mouse DRG neurons): decreased rheobase at 0 and 30 min

Molecule: Cc1nc(C(=O)N2CCN(C(=O)c3cn4nc(-c5ccc(F)cc5)cc(C(C)(C)C)c4n3)C(C)(C)C2)n[nH]1 [Compound I-343, (8-(tert-butyl)-6-(4-fluorophenyl)imidazo[1,2-b]pyridazin-2-yl)(2,2-dimethyl-4-(5-methyl-1H-1,2,4-triazole-3-carbonyl)piperazin-1-yl)methanone]
- basal mechanical sensitivity of colonic afferents (colonic afferent neurons): did not affect
- trypsin-induced sensitization of mechanical responses (colonic afferent neurons): abolished
- decrease in rheobase 0 min after NE (mouse DRG neurons): prevented
- decrease in rheobase 0 min after trypsin (mouse DRG neurons; 100 nM, 300 nM): prevented
- decrease in rheobase 30 min after CS (mouse DRG neurons; 10 μM): prevented
- decrease in rheobase 30 min after NE (mouse DRG neurons; 10 μM): not
- decrease in rheobase 30 min after trypsin (mouse DRG neurons; 10 μM): prevented
- trypsin activation of cytosolic and nuclear ERK [1]: inhibited
